According to patent US20160222014A1, “COMPOUNDS FOR REGULATING FAK AND/OR SRC PATHWAYS” (ASANA BIOSCIENCES, LLC, priority 2013, published 2016):

Columns and labels:
Format in all cases: biochemical
Recombinant Src enzyme = molecular target: T1, Recombinant Src enzyme (Homo sapiens, UniProt P12931); experiment: Src HTRF assay
T1 construct: purchased Millipore 14-326; host or cells: Sf21 insect cells
Experimental: Enzyme assay buffer, supplements, and compounds were prepared as described in the FAK HTRF assay.
Recombinant Src enzyme expressed in Sf21 insect cells was obtained (Millipore, Cat No. 14-326, Lot # D8CN006U-K). A 35 μM stock was used at a final concentration of 5 nM in the assay.
Tyk2 synthetic peptide-Biotinylated-N-terminal tag-[…]
A custom made substrate, a Tyk2 synthetic peptide, biotinylated with an N-terminal tag was obtained (Biopeptide and Sigma, Cat. No. 14918001 VC80021). A 100 μM stock was used at a final concentration of 0.5 μM in the assay.
A 10 mM stock in 100 μL enzyme assay buffer pH7.4 was prepared freshly and used at a final concentration of 10 μM in the assay.
Dasatinib (Bristol-Myers Squibb)
The assay procedure was the same as discussed above.

AURKB (Aurora B) enzyme = molecular target: T2, AURKB (Aurora B) enzyme (Homo sapiens, UniProt Q96GD4); experiment: Aurora B HTRF assay; conditions: read-out: AuroraB IC50
T2 construct: purchased Invitrogen PVR 130
T2 sequence (Q96GD4 whole entry): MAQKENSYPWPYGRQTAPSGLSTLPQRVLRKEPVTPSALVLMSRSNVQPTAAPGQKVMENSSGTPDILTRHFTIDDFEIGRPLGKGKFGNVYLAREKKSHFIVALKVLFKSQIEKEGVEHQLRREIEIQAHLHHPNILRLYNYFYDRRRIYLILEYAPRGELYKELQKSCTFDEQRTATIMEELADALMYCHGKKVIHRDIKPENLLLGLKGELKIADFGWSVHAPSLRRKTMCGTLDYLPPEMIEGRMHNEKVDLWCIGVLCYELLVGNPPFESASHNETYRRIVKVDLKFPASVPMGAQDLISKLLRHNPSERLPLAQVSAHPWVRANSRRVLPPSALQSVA
Experimental: AURKB (Aurora B) enzyme was obtained (Invitrogen, Cat No. PVR 130, Lot No. 857013J). A 8.64 μM stock was used at a final concentration 5 nM in the assay.
Lance@Ultera Ulight-PLK (Ser137) peptide substrate
Peptide substrate was obtained from Perkin Elmer (Lot#1629793, TRF0110-M). A 5 μM stock was used at a final concentration of 50 nM in the assay.
10 mM stock prepared freshly as above, used at a final concentration of 30 μM in assay.
The plate was covered with aluminum foil, put on a shaker and incubated 1 h at rt.
Reference: Pfizer aurora inhibitor PF-03814735 was procured from Selleckchem: Cat# S2725
Using stock Lance detection buffer, 1× Lance detection buffer was prepared. • 1. 10× lance detection buffer was diluted to 1×, mixed well and 100 μL was removed, and was used to substitute with antibody and EDTA (for a total of 2200 μL). • 2. 88 μL of […] EDTA was added from 500 mM stock. • 3. 14 μL Europium labeled antibody (LANCE@ Ultra EU-Anti-P-PLK(Ser 137), TRF0203-D, Lot No. 1630351, Perkin Elmer) was added from 625 nM stock; required concentration was 2 nM in the assay. • 4. The buffer well was mixed and 20 μL was transferred to the each well in the assay plate. • 5. The solutions were incubated for 1 h at rt. • 6. The plate was read using MET-HTRF® protocol using Pherastar equipment.

recombinant human FAK1 = molecular target: T3, recombinant human FAK1 (Homo sapiens, UniProt Q05397); experiment: FAK1 HTRF assay
T3 construct: fused on or other part: N-terminal 6xHis tag
T3 sequence (Q05397 422-680 limits assumed): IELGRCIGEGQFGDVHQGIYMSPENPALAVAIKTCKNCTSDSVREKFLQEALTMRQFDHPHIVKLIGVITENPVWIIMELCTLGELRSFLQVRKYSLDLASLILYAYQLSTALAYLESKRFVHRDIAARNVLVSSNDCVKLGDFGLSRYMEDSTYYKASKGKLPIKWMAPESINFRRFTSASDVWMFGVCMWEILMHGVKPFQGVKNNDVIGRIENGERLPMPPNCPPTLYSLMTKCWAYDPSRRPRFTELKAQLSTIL
In short: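 His-tagged human FAK1 (residues 692–end, Sf9-expressed), 10 nM final, with 0.5 μM biotinylated gastrin-precursor Tyr87 peptide and a 10 μM final reagent in pH 7.4 buffer, 45 min at rt. Detection used Eu anti-pTyr antibody plus SA-APC (665/620 nm). Compounds top concentration 10 μM; IC50 from % inhibition.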

T1 sequence (P12931 whole entry): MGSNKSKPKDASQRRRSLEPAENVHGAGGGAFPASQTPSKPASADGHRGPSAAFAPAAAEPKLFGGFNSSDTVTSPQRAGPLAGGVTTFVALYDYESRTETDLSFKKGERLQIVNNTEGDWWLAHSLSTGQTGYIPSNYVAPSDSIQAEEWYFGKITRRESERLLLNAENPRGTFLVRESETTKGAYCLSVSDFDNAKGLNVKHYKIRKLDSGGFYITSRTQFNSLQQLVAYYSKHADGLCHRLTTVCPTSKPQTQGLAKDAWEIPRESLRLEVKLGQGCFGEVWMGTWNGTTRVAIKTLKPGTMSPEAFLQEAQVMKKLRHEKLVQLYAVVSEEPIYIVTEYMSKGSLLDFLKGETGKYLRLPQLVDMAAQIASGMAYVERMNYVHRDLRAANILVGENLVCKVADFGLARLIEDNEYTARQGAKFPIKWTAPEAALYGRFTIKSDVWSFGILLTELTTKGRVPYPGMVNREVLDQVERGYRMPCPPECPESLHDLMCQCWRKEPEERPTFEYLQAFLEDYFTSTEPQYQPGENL

SMILES | IC50 (Recombinant Src enzyme) [nM] | IC50 (AURKB (Aurora B) enzyme) [nM] | IC50 (recombinant human FAK1) [nM]
FC(F)Oc1ccccc1Cn1ccc2cnc(Nc3ccc4ncsc4c3)cc21 [Example 20] | > 1000 | > 1000 | –
CN(c1cccc(Cn2ccc3cnc(Nc4ccc5c(c4)CCC(=O)N5)nc32)c1)S(C)(=O)=O [Example 50] | > 1000 | < 20 | –
CNS(=O)(=O)c1cccc(Cn2ccc3cnc(Nc4ccc5c(c4)CCC(=O)N5)nc32)c1 [Example 60] | > 1000 | < 20 | –
CC(=O)Nc1cccc(Nc2cc3c(cn2)cnn3S(=O)(=O)c2ccccc2OC(F)(F)F)c1 [Example 86] | > 1000 | > 1000 | –
Cc1nn(S(=O)(=O)c2ccccc2OC(F)(F)F)c2cc(Nc3ccc4c(c3)CCC(=O)N4)ncc12 [Example 90] | > 1000 | < 20 | –
O=c1[nH]c2ccc(Nc3ncc4ccn(S(=O)(=O)c5ccccc5OC(F)(F)F)c4n3)cc2[nH]1 [Example 93] | > 1000 | < 20 | –
CN(c1ncccc1Cn1ccc2cnc(Nc3ccc(N4CCNCC4=O)cc3)nc21)S(C)(=O)=O [Example 102] | > 1000 | < 20 | –
CN(c1ncccc1Cn1ccc2cnc(Nc3ccc(N4CCOCC4)cn3)nc21)S(C)(=O)=O [Example 107] | > 1000 | < 20 | –
CN(C)CCOc1cccc(Nc2cc3c(ccn3S(=O)(=O)c3ccccc3OC(F)(F)F)cn2)c1 [Example 126] | > 1000 | < 20 | –
CN1C(=O)CCc2cc(Nc3ncc4ccn(Cc5cccnc5N(C)S(C)(=O)=O)c4n3)ccc21 [Example 136] | < 20 | < 20 | < 20
COc1cccc(Nc2ncc3ccn(S(=O)(=O)c4ccccc4C#N)c3n2)c1 [Example 178] | > 1000 | < 20 | –
Cc1cc(Nc2ncc3ccn(S(=O)(=O)c4cccc5cccnc45)c3n2)ccc1N1CCNCC1 [Example 196] | < 20 | < 20 | < 20
Cc1cc(Nc2ncc3ccn(S(=O)(=O)c4ccccc4C#N)c3n2)ccc1N1CCNCC1 [Example 212] | < 20 | < 20 | < 20
O=S(=O)(c1cccc2ccccc12)n1ccc2cnc(Nc3ccc(N4CCNCC4)cc3)nc21 [Example 219] | < 20 | < 20 | < 20
CC(=O)Nc1ccc(Nc2cc3c(cn2)cnn3S(=O)(=O)c2cccc3cccnc23)cc1 [Example 315] | > 1000 | < 20 | –
COc1ccccc1S(=O)(=O)n1ccc2cnc(Nc3ccc(N4CCNCC4)cc3)cc21 [Example 343] | > 1000 | < 20 | < 20
O=S(=O)(c1cccc2cccnc12)n1ncc2cnc(Nc3ccc(N4CCC(O)CC4)cc3)cc21 [Example 345] | > 1000 | < 20 | < 20
COc1cc(N2CCNCC2)ccc1Nc1cc2c(ccn2Cc2cccnc2N(C)S(C)(=O)=O)cn1 [Example 366] | > 1000 | > 1000 | –
O=S(=O)(c1cccc2cccnc12)n1ncc2cnc(Nc3ccc(N4CC5CC4CN5)cc3)cc21 (stereo not shown) [Example 383] | > 1000 | < 20 | –
COc1cc(N2CCOCC2)ccc1Nc1cc2c(ccn2S(=O)(=O)c2cccc3cccnc23)cn1 [Example 401] | > 1000 | < 20 | < 20
COc1cc(Nc2ncc3ccn(Cc4ccccc4N(C)S(C)(=O)=O)c3n2)ccc1N1CCN(C)CC1 [Example 429] | < 20 | < 20 | < 20
CN(c1ncccc1CN1CC(C)(C)c2cnc(Nc3ccc(N4CCNCC4)cc3)nc21)S(C)(=O)=O [Example 437] | > 1000 | > 1000 | > 1000
C[C@H]1CN(c2ccc(Nc3ncc4ccn(Cc5ccccc5N(C)S(C)(=O)=O)c4n3)cc2)CCN1C [Example 491] | < 20 | – | < 20
COc1cc(N2CCN(C)CC2)ccc1Nc1cc2c(ccn2S(=O)(=O)c2ccccc2C#N)cn1 [Example 493] | > 1000 | – | < 20

SMILES | IC50 (Recombinant Src enzyme) [nM] | IC50 (AURKB (Aurora B) enzyme) [nM] | IC50 (recombinant human FAK1) [nM]
CN(c1ccccc1Cn1ccc2cnc(Nc3ccc(N4CCN5CCCC5C4)cc3)nc21)S(C)(=O)=O (stereo not shown) [Example 496] | < 20 | – | < 20
COc1cc(N2CCN(C)CC2)ccc1Nc1ncc2c(n1)N(S(=O)(=O)c1cccc3cccnc13)CC2(C)C [Example 504] | > 1000 | > 1000 | < 20
O=S(=O)(c1cc(Cl)ccc1Cl)N1CC2(CC2)c2cnc(Nc3ccc(N4CCNCC4)cc3)nc21 [Example 510] | > 1000 | > 1000 | –
CN(c1ccccc1C(=O)N1CC(C)(C)c2cnc(Nc3ccc(N4CCNCC4)cc3)nc21)S(C)(=O)=O [Example 528] | > 1000 | > 1000 | > 1000
CC1(C)CN(S(=O)(=O)c2ccccc2C#N)c2cc(Nc3ccc(N4CCNCC4)cc3)ncc21 [Example 532] | > 1000 | > 1000 | –
CS(=O)(=O)N(CCN)c1ccccc1Cn1ccc2cnc(Nc3ccc(N4CCNCC4)cc3)nc21 [Example 558] | > 1000 | > 1000 | > 1000
COc1cccc(Nc2ncc3ccn(Cc4ccccc4N(CCN4CCNCC4)S(C)(=O)=O)c3n2)c1 [Example 583] | > 1000 | – | > 1000
C[C@H]1CN(c2ccc(Nc3ncc4ccn(Cc5cccnc5N(C)S(C)(=O)=O)c4n3)nc2)CCN1 [Example 585, (S)—N-methyl-N-(3-((2-((5-(3-methylpiperazin-1-yl)pyridin-2-yl)amino)-7H-pyrrolo[2,3-d]pyrimidin-7-yl)methyl)pyridin-2-yl)methanesulfonamide] | > 1000 | – | > 1000
CN(C)C1CCN(c2ccc(Nc3cc4c(cn3)C(C)(C)CN4S(=O)(=O)c3cccc4cccnc34)cc2)CC1 [Example 611] | > 1000 | – | < 20
COc1cc(N2CCC(N(C)C)CC2)ccc1Nc1ncc2ccn(Cc3ccccc3N(C)S(C)(=O)=O)c2n1 [Example 628] | > 1000 | > 1000 | –
COc1cc(N2CCN[C@@H](C)C2)ccc1Nc1ncc2ccn(Cc3cccnc3N(C)S(C)(=O)=O)c2n1 [Example 629] | > 1000 | > 1000 | –
COc1cc(N2CCC(N(C)C)CC2)ccc1Nc1ncc2ccn(Cc3cccnc3N(C)S(C)(=O)=O)c2n1 [Example 634] | > 1000 | > 1000 | –
COc1cc(N2CCC(N(C)C)CC2)ccc1Nc1ncc2c(n1)N(S(=O)(=O)c1cccc3cccnc13)CC2(C)C [Example 650] | > 1000 | – | < 20
CC1(C)CN(c2ccccn2)c2nc(Nc3ccc4[nH]cc(C5=CCNCC5)c4c3)ncc21 [Example 713] | > 1000 | – | < 20
C[C@H]1CN(c2ccc(Nc3ncc4ccn(Cc5ccccc5NS(=O)(=O)CCCF)c4n3)c(F)c2)CCN1 [Example 729] | > 1000 | – | > 1000
C[C@H]1CN(c2ccc(Nc3ncc4ccn(Cc5ccccc5N(C)S(=O)(=O)CCCF)c4n3)c(F)c2)CCN1 [Example 730] | > 1000 | – | > 1000
CN(c1ncccc1Cn1cc(C#N)c2cnc(Nc3ccc(N4CCNCC4)cc3)nc21)S(C)(=O)=O [Example 732] | > 1000 | – | > 1000
CN(c1ncccc1Cn1cc(C(N)=O)c2cnc(Nc3ccc(N4CCNCC4)cc3)nc21)S(C)(=O)=O [Example 734] | > 1000 | – | > 1000
CN(C)C1CCN(c2ccc(Nc3ncc4c(n3)N(c3ccccc3NS(C)(=O)=O)CC4(C)C)cc2)CC1 [Example 784] | > 1000 | – | > 1000
CN(C)C1CCN(c2ccc(Nc3nc4c(ccn4Cc4cccnc4N(C)S(C)(=O)=O)cc3C#N)cc2)CC1 [Example 785] | > 1000 | – | > 1000
Cc1ccc(N(C)S(C)(=O)=O)c(Cn2ccc3cnc(Nc4ccc5c(c4)CC(=O)N5)nc32)c1 [Example 786] | > 1000 | – | < 20
CC(=O)N(C)c1ccccc1Cn1ccc2cnc(Nc3ccc(N4CCN[C@H](C)C4)cc3)nc21 [Example 787] | > 1000 | – | > 1000
CC(=O)N(C)c1ccccc1Cn1ccc2cnc(Nc3ccc(N4CCC(N(C)C)CC4)cc3)nc21 [Example 788] | > 1000 | – | > 1000
